Legend:
Assay in all cases: Pre-emergence test
Format in all cases: in vivo
[1] = test system: Digitaria sanguinalis (DIGSA); conditions: 3 weeks after treatment
Description: (§1) To evaluate their herbicidal activity, compounds according to the invention are tested using a representative range of plants: […] The pre-emergence tests involve spraying a liquid formulation of the compound onto the soil in which the seeds of the plant species mentioned above has recently been sown. The soil used in the tests is a prepared horticultural loam. […] In these tests untreated sown soil are used as controls.

[2] = test system: Abutilon theophrasti (ABUTH); conditions: 3 weeks after treatment
Description: as §1

[3] = test system: Matricaria inodora (MATIN); conditions: 3 weeks after treatment
Description: as §1

[4] = test system: Lolium multiflorum (LOLMU); conditions: 3 weeks after treatment
Description: as §1

Stellaria media (STEME) = conditions: 3 weeks after treatment
Description: as §1

Lamium purpureum (LAMPU) = conditions: 3 weeks after treatment
Description: as §1

Galium aparine (GALAP) = conditions: 3 weeks after treatment
Description: as §1

[5] = test system: Ipomoea hederacea (IPOHE); conditions: 3 weeks after treatment
Description: as §1

[6] = test system: Cassia obtusifolia (CASOB); conditions: 3 weeks after treatment
Description: as §1

Setaria viridis (SETVI) = conditions: 3 weeks after treatment
Description: as §1

[7] = test system: Alopecurus myosuroides (ALOMY); conditions: 3 weeks after treatment
Description: as §1

Zea mays (ZEAMX) = conditions: for Assessment rating ZEAMX (pre-emergence application): crop (corn), 3 weeks after treatment
Description: as §1

[8] = test system: Echinochloa crus-galli (ECHCG); conditions: 3 weeks after treatment
Description: as §1

Assessment rating ZEAMX (pre-emergence application) (Zea mays (ZEAMX); 0.013 kg/ha): 0 (0 - No effect)
Assessment rating ZEAMX (pre-emergence application) (Zea mays (ZEAMX); 0.025 kg/ha): 1 (1 - Trace effect)
Assessment rating ZEAMX (pre-emergence application) (Zea mays (ZEAMX); 0.100 kg/ha): 2 (2 - Slight effect)
Selectivity in maize (Zea mays (ZEAMX); pre-emergence, 0.100 kg/ha): Good selectivity in maize
SMILES: Cc1cc(Oc2cc(C(F)(F)F)nn2C)nc(-n2ccc(C(F)(F)F)n2)c1 [Example 2, 4-methyl-2-(-3-trifluoromethyl-1H-prazol-1-yl)-6-(1-methyl-3-trifluoromethyl-pyrazol-5-yloxy)-pyridine]
Assessment rating DIGSA (pre-emergence application) ([1]; 0.013 kg/ha): 9 (9 - Complete kill)
Assessment rating DIGSA (pre-emergence application) ([1]; 0.025 kg/ha): 9 (9 - Complete kill)
Assessment rating DIGSA (pre-emergence application) ([1]; 0.100 kg/ha): 9 (9 - Complete kill)
Assessment rating DIGSA (pre-emergence application) ([1]; 0.400 kg/ha): 9 (9 - Complete kill)
Assessment rating ABUTH (pre-emergence application) ([2]; 0.013 kg/ha): 1 (1 - Trace effect)
Assessment rating ABUTH (pre-emergence application) ([2]; 0.025 kg/ha): 3 (3 - Moderate effect)
Assessment rating ABUTH (pre-emergence application) ([2]; 0.100 kg/ha): 8 (8 - Approaching complete kill)
Assessment rating ABUTH (pre-emergence application) ([2]; 0.400 kg/ha): 9 (9 - Complete kill)
Assessment rating MATIN (pre-emergence application) ([3]; 0.013 kg/ha): 7 (7 - Good herbicidal effect)
Assessment rating MATIN (pre-emergence application) ([3]; 0.025 kg/ha): 8 (8 - Approaching complete kill)
Assessment rating MATIN (pre-emergence application) ([3]; 0.100 kg/ha): 9 (9 - Complete kill)
Assessment rating MATIN (pre-emergence application) ([3]; 0.400 kg/ha): 9 (9 - Complete kill)
Assessment rating LOLMU (pre-emergence application) ([4]; 0.013 kg/ha): 6 (6 - Herbicidal effect)
Assessment rating LOLMU (pre-emergence application) ([4]; 0.025 kg/ha): 6 (6 - Herbicidal effect)
Assessment rating LOLMU (pre-emergence application) ([4]; 0.100 kg/ha): 8 (8 - Approaching complete kill)
Assessment rating LOLMU (pre-emergence application) ([4]; 0.400 kg/ha): 8 (8 - Approaching complete kill)
Assessment rating STEME (pre-emergence application) (Stellaria media (STEME); 0.013 kg/ha): 6 (6 - Herbicidal effect)
Assessment rating STEME (pre-emergence application) (Stellaria media (STEME); 0.025 kg/ha): 9 (9 - Complete kill)
Assessment rating STEME (pre-emergence application) (Stellaria media (STEME); 0.100 kg/ha): 9 (9 - Complete kill)
Assessment rating STEME (pre-emergence application) (Stellaria media (STEME); 0.400 kg/ha): 9 (9 - Complete kill)
Assessment rating LAMPU (pre-emergence application) (Lamium purpureum (LAMPU); 0.013 kg/ha): 8 (8 - Approaching complete kill)
Assessment rating LAMPU (pre-emergence application) (Lamium purpureum (LAMPU); 0.025 kg/ha): 8 (8 - Approaching complete kill)
Assessment rating LAMPU (pre-emergence application) (Lamium purpureum (LAMPU); 0.100 kg/ha): 9 (9 - Complete kill)
Assessment rating LAMPU (pre-emergence application) (Lamium purpureum (LAMPU); 0.400 kg/ha): 9 (9 - Complete kill)
Assessment rating GALAP (pre-emergence application) (Galium aparine (GALAP); 0.013 kg/ha): 1 (1 - Trace effect)
Assessment rating GALAP (pre-emergence application) (Galium aparine (GALAP); 0.025 kg/ha): 3 (3 - Moderate effect)
Assessment rating GALAP (pre-emergence application) (Galium aparine (GALAP); 0.100 kg/ha): 6 (6 - Herbicidal effect)
Assessment rating GALAP (pre-emergence application) (Galium aparine (GALAP); 0.400 kg/ha): 8 (8 - Approaching complete kill)
Assessment rating IPOHE (pre-emergence application) ([5]; 0.013 kg/ha): 1 (1 - Trace effect)
Assessment rating IPOHE (pre-emergence application) ([5]; 0.025 kg/ha): 3 (3 - Moderate effect)
Assessment rating IPOHE (pre-emergence application) ([5]; 0.100 kg/ha): 6 (6 - Herbicidal effect)
Assessment rating IPOHE (pre-emergence application) ([5]; 0.400 kg/ha): 9 (9 - Complete kill)
Assessment rating CASOB (pre-emergence application) ([6]; 0.013 kg/ha): 0 (0 - No effect)
Assessment rating CASOB (pre-emergence application) ([6]; 0.025 kg/ha): 4 (4 - Injury)
Assessment rating CASOB (pre-emergence application) ([6]; 0.100 kg/ha): 8 (8 - Approaching complete kill)
Assessment rating CASOB (pre-emergence application) ([6]; 0.400 kg/ha): 9 (9 - Complete kill)
Assessment rating SETVI (pre-emergence application) (Setaria viridis (SETVI); 0.013 kg/ha): 9 (9 - Complete kill)
Assessment rating SETVI (pre-emergence application) (Setaria viridis (SETVI); 0.025 kg/ha): 9 (9 - Complete kill)
Assessment rating SETVI (pre-emergence application) (Setaria viridis (SETVI); 0.100 kg/ha): 9 (9 - Complete kill)
Assessment rating SETVI (pre-emergence application) (Setaria viridis (SETVI); 0.400 kg/ha): 9 (9 - Complete kill)
Assessment rating ALOMY (pre-emergence application) ([7]; 0.013 kg/ha): 2 (2 - Slight effect)
Assessment rating ALOMY (pre-emergence application) ([7]; 0.025 kg/ha): 5 (5 - Definite injury)
Assessment rating ALOMY (pre-emergence application) ([7]; 0.100 kg/ha): 8 (8 - Approaching complete kill)
Assessment rating ALOMY (pre-emergence application) ([7]; 0.400 kg/ha): 8 (8 - Approaching complete kill)
Assessment rating ZEAMX (pre-emergence application) (Zea mays (ZEAMX); 0.400 kg/ha): 4 (4 - Injury)
Assessment rating ECHCG (pre-emergence application) ([8]; 0.013 kg/ha): 1 (1 - Trace effect)
Assessment rating ECHCG (pre-emergence application) ([8]; 0.025 kg/ha): 2 (2 - Slight effect)

From patent US6448204B1, “Herbicidal 2-aryloxy-4-methyl-6-pyrazol-1-yl-pyridines” (BASF Aktiengesellschaft, priority 1999, dated 2002)
